Source: patent US12089591B2 (priority 2005, dated 2024)
Where “and” joins values, the source holds several entries; their conditions need not be identical. Equal entries are not always repeated. Where two headings read alike, the source gives them in different places.

System: ROUNDUP READY FLEX cotton
[1] = Table AO1a, […], glyphosate 2520 g/ha, PMIDA 11.9 g/ha
[2] = Table AO1a, […], glyphosate 5040 g/ha, PMIDA 23.9 g/ha
[3] = Table M3a, […], glyphosate 1260 g/ha, PMIDA 3.95 g/ha
[4] = Table M3a, […], glyphosate 2520 g/ha, PMIDA 7.90 g/ha
[5] = Table M3a, […], glyphosate 5040 g/ha, PMIDA 15.8 g/ha
[6] = Table M1a, […], glyphosate 2520 g/ha, PMIDA 11.9 g/ha, control = no additive
[7] = Table M1a, […], glyphosate 5040 g/ha, PMIDA 23.9 g/ha, control = no additive
[8] = Table D1a Study 2, glyphosate:dye 10:1, glyphosate 2520 g/ha, PMIDA 11.9 g/ha
[9] = Table D1a Study 2, glyphosate:dye 10:1, glyphosate 5040 g/ha, PMIDA 23.9 g/ha
[10] = Table D1a Study 2, glyphosate:dye 100:1, glyphosate 2520 g/ha, PMIDA 11.9 g/ha
[11] = Table D1a Study 2, glyphosate:dye 100:1, glyphosate 5040 g/ha, PMIDA 23.9 g/ha
[12] = Table D1a Study 2, glyphosate:dye 1000:1, glyphosate 2520 g/ha, PMIDA 11.9 g/ha
[13] = Table D1a Study 2, glyphosate:dye 1000:1, glyphosate 5040 g/ha, PMIDA 23.9 g/ha
[14] = Table D1a Study 3, glyphosate:dye 100:1, glyphosate 2520 g/ha, PMIDA 11.9 g/ha
[15] = Table D1a Study 3, glyphosate:dye 100:1, glyphosate 5040 g/ha, PMIDA 23.9 g/ha
[16] = Table H2a, […], glyphosate 2520 g/ha, PMIDA 11.9 g/ha
[17] = Table H2a, […], glyphosate 5040 g/ha, PMIDA 23.9 g/ha

Compound: OCCOCCO [Diethylene glycol]
- decrease of necrosis (in words) (in vivo): significantly decreased necrosis

Compound: COc1ccc(O)c(C(C)(C)C)c1 [butylated hydroxy anisole, butylated hydroxyanisole]
- Necrosis Reduction Relative to Control [1]: 80%
- Necrosis Reduction Relative to Control [2]: 29%

Compound: O=C([O-])CC(O)(CC(=O)[O-])C(=O)[O-].[Fe+3] [Iron citrate, iron(III) citrate]
- Necrosis Reduction Relative to Control [3]: 100%
- Necrosis Reduction Relative to Control [4]: 97%
- Necrosis Reduction Relative to Control [5]: 75%
- reduction in necrosis, comparison of iron sources (in words) (in vivo): no significant difference

Compound: O=S([O-])[O-].[Na+].[Na+] [Sodium sulfite, sodium sulfite]
- Necrosis Reduction Relative to Control [1]: 39%
- Necrosis Reduction Relative to Control [2]: 0%

Compound: O=C(O)CN(CC(=O)O)CP(=O)(O)O [PMIDA, N-(phosphonomethyl)iminodiacetic acid]
- Maximum necrosis (plateau) (Example 1, highest application rate and higher levels of PMIDA): 80-85%

Compound: [Ca+2].[Cl-].[Cl-] [Calcium chloride, Calcium chloride (anhydrous)]
- Necrosis Reduction Relative to Control [6]: 32%
- Necrosis Reduction Relative to Control [7]: 6%

Compound: polyethylene glycol 900
- decrease of necrosis (in words) (in vivo): significantly decreased necrosis

Compound: OCC(O)CO [glycerin]
- Necrosis Reduction Relative to Control (Table H1a Study 1, additive 2% v/v, glyphosate 2520 g/ha, PMIDA 11.9 g/ha): 12%
- Necrosis Reduction Relative to Control (Table H1a Study 1, additive 2% v/v, glyphosate 5040 g/ha, PMIDA 23.9 g/ha): 14%
- Necrosis Reduction Relative to Control (Table H1a Study 1, additive 4% v/v, glyphosate 2520 g/ha, PMIDA 11.9 g/ha): 45%
- Necrosis Reduction Relative to Control (Table H1a Study 1, additive 4% v/v, glyphosate 5040 g/ha, PMIDA 23.9 g/ha): 41%
- reduction of necrosis (in words) (in vivo): significantly reduced necrosis

Compound: O=C([O-])c1nn(-c2ccc(S(=O)(=O)[O-])cc2)c(O)c1N=Nc1ccc(S(=O)(=O)[O-])cc1.[Na+].[Na+].[Na+] [FD&C Yellow #5, 3-carboxy-5-hydroxy-1-p-sulfophenyl-4-p-sulfophenylazopyrazole trisodium salt]
- Necrosis Reduction Relative to Coontrol (Table D1a Study 1, glyphosate:dye 10:1, glyphosate 2520 g/ha, PMIDA 11.9 g/ha): 96%
- Necrosis Reduction Relative to Coontrol (Table D1a Study 1, glyphosate:dye 10:1, glyphosate 5040 g/ha, PMIDA 23.9 g/ha): 55%
- Necrosis Reduction Relative to Coontrol [8]: 84%
- % necrosis (2 DAT) [9]: 38%
- Necrosis Reduction Relative to Coontrol [9]: 51%
- % necrosis (2 DAT) [10]: 31%
- Necrosis Reduction Relative to Coontrol [10]: 18%
- % necrosis (2 DAT) [11]: 55%
- Necrosis Reduction Relative to Coontrol [11]: 29%
- % necrosis (2 DAT) [12]: 28%
- Necrosis Reduction Relative to Coontrol [12]: 26%
- % necrosis (2 DAT) [13]: 69%
- Necrosis Reduction Relative to Coontrol [13]: 12%
- decrease of PMIDA-induced necrosis by dye (in words) (dye as safening agent in glyphosate spray solutions): significantly decrease

Compound: COc1cc(S(=O)(=O)[O-])c(C)cc1N=Nc1c(O)ccc2cc(S(=O)(=O)[O-])ccc12.[Na+].[Na+] [FD&C Red #40]
- Necrosis Reduction Relative to Coontrol [14]: 11%
- Necrosis Reduction Relative to Coontrol [15]: 0%

Compound: Zinc sulfate heptahydrate
- effect of metal salt on necrosis (in words) (in vivo): significantly reduce necrosis

Compound: Nc1cc(S(=O)(=O)[O-])cc2cc(S(=O)(=O)[O-])c(N=Nc3ccccc3)c(O)c12.[Na+].[Na+] [FD&C Red #33]
- Necrosis Reduction Relative to Coontrol [14]: 6%
- Necrosis Reduction Relative to Coontrol [15]: 0%

Compound: CCN(Cc1cccc(S(=O)(=O)[O-])c1)c1ccc(C(=C2C=CC(=[N+](CC)Cc3cccc(S(=O)(=O)[O-])c3)C=C2)c2ccc(O)cc2S(=O)(=O)[O-])cc1.[Na+].[Na+] [Fast Green FCF]
- Necrosis Reduction Relative to Coontrol [14]: 2%
- Necrosis Reduction Relative to Coontrol [15]: 0%

Compound: O=C([O-])CN(CCN(CC(=O)[O-])CC(=O)[O-])CC(=O)[O-].[Fe+3].[Na+] [Iron + EDTA, iron(III) EDTA sodium salt hydrate]
- Necrosis Reduction Relative to Control [3]: 100%
- Necrosis Reduction Relative to Control [4]: 68%
- Necrosis Reduction Relative to Control [5]: 45%
- reduction in necrosis, comparison of iron sources (in words) (in vivo): significantly less effective

Compound: CCN(Cc1cccc(S(=O)(=O)[O-])c1)c1ccc(C(=C2C=CC(=[N+](C)C)C=C2)c2ccc(N(CC)Cc3cccc(S(=O)(=O)O)c3)cc2)cc1 [FD&C Violet #1]
- Necrosis Reduction Relative to Coontrol [14]: 37%
- Necrosis Reduction Relative to Coontrol [15]: 0%

Compound: NC(N)=O [urea]
- Necrosis Reduction Relative to Control (Table H1a Study 2, glycerin 4% v/v or urea 8% v/v, glyphosate 2520 g/ha, PMIDA 11.9 g/ha): 36%
- Necrosis Reduction Relative to Control (Table H1a Study 2, glycerin 4% v/v or urea 8% v/v, glyphosate 5040 g/ha, PMIDA 23.9 g/ha): 13%
- reduction of necrosis (in words) (in vivo): significantly reduced necrosis

Compound: O.O.O.O.O.O.O.O=S(=O)([O-])[O-].[Mg+2] [Magnesium sulfate, Magnesium sulfate heptahydrate]
- Necrosis Reduction Relative to Control (in vivo): 0% and 6%
- effect of metal salt on necrosis (in words) (in vivo): relatively little impact

Compound: CCN(Cc1cccc(S(=O)(=O)[O-])c1)c1ccc(C(=C2C=CC(=[N+](CC)Cc3cccc(S(=O)(=O)[O-])c3)C=C2)c2ccccc2S(=O)(=O)[O-])cc1.[Na+].[Na+] [FD&C Blue #1]
- Necrosis Reduction Relative to Coontrol [8]: 66%
- % necrosis (2 DAT) [9]: 46%
- Necrosis Reduction Relative to Coontrol [9]: 41%

Compound: CCC(CO)(CO)CO [trimethylol-propane]
- Necrosis Reduction Relative to Control [16]: 0%
- Necrosis Reduction Relative to Control [17]: 0%

Compound: CC(O)CC(C)(C)O (stereo not shown) [2-methyl-2,4-pentanediol]
- decrease of necrosis (in words) (in vivo): significantly decreased necrosis

Compound: OCCCCO [1,4-butanediol]
- decrease of necrosis (in words) (in vivo): significantly decreased necrosis

Compound: [Cl][Fe]([Cl])[Cl] [Ferric chloride]
- Necrosis Reduction Relative to Control [6]: 100%
- Necrosis Reduction Relative to Control [7]: 97%

Compound: Aluminum chloride hexahydrate
- Necrosis Reduction Relative to Control (in vivo): 95% and 71%

Compound: polyethylene glycol 200
- decrease of necrosis (in words) (in vivo): significantly decreased necrosis

Compound: CC(C)CC(C)(O)C#CC(C)(O)CC(C)C (stereo not shown) [Surfynol 104A]
- Necrosis Reduction Relative to Control [16]: 50%
- Necrosis Reduction Relative to Control [17]: 8%
- decrease of necrosis (in words) (in vivo): significantly decreased necrosis

Compound: O=[N+]([O-])[O-].O=[N+]([O-])[O-].[Cu+2] [Cupric Nitrate, Cupric Nitrate (2.1) hydrate]
- Necrosis Reduction Relative to Control [6]: 92%
- Necrosis Reduction Relative to Control [7]: 68%

Compound: CC(O)C#CC(C)O (stereo not shown) [3-hexyne-2,5-diol]
- decrease of necrosis (in words) (in vivo): significantly decreased necrosis
